These results are taken from ChEMBL document CHEMBL5244259, “Azithromycin: The First Broad-spectrum Therapeutic” (Eur J Med Chem, 2020).

One data set concerns Zaire ebolavirus. As to the kind of experiment: Antiviral activity against Zaire ebolavirus infected in African green monkey Vero cells assessed as reduction in virus induced cytopathic effect preincubated with cells for 1 hr followed by viral infection and measured after 48 hrs. It is filed as functional, organism-based. For orientation: Damage to the host cells serves as the signal in cytopathic effect assays.

A short description of data set [1]: Selectivity index, ratio of CC50 for African green monkey Vero cells to EC50 for Zaire ebolavirus infected in African green monkey Vero cells. It is filed as toxicity. The conditions noted are these: read-out: Ratio CC50/EC50.
The subject of the next data set is SARS-CoV-2. As to the kind of experiment: Antiviral activity against SARS-COV-2 infected in African green monkey Vero cells assessed as reduction in virus induced cytopathic effect preincubated with cells for 15 mins followed by viral infection and measured after 2 days by RT-PCR analysis. The format is functional, organism-based. The following applies: Severe acute respiratory syndrome coronavirus 2, Vero.

Another data set has as its system Zika virus. Kind of data set: Antiviral activity against Zika virus GZ01/2016 infected in African green monkey Vero cells assessed as reduction in virus induced cytopathic effect preincubated with cells for 12 hrs followed by viral infection and measured after 48 hrs by qRT-PCR analysis. The format is functional, organism-based. The conditions noted are these: GZ01/2016, Vero.

The nature of data set [2]: Antiproliferative against African green monkey Vero cells incubated for 40 hrs by Celltiter assay. It is filed as toxicity, cell-based. The conditions noted are these: chlorocebus sabaeus.
Data set [3] is described as follows: Cytotoxicity against African green monkey Vero cells by MTT assay. The conditions noted are these: chlorocebus sabaeus. It is filed as toxicity, cell-based. (In general: Tetrazolium assays rely on reduction of a dye to a coloured formazan, in cell work by metabolically active cells.)
A short description of data set [4]: Selectivity index, ratio of CC50 for African green monkey Vero cells to EC50 for SARS-COV-2. It is filed as toxicity. The conditions noted are these: read-out: Ratio CC50/EC50.
The nature of data set [5]: Selectivity index, ratio of CC50 for African green monkey Vero cells to EC50 for Dengue virus 2 infected in African green monkey Vero cells. The format is toxicity. The conditions noted are these: read-out: Ratio CC50/EC50.
Data set [6] in a line: Selectivity index, ratio of CC50 for African green monkey Vero cells to EC50 for Zika virus GZ01/2016 infected in African green monkey Vero cells. It is filed as toxicity. The following applies: read-out: Ratio CC50/EC50.
The nature of data set [7]: Antiproliferative against African green monkey Vero cells. It is filed as toxicity, cell-based. The following applies: chlorocebus sabaeus.
Data set [8] can be described thus: Cytotoxicity against African green monkey Vero cells by Celltiter blue assay. The format is toxicity, cell-based. The conditions noted are these: chlorocebus sabaeus. Background: The colour change of resazurin is a common sign of viable cells or microbes.
The subject of a further data set is Influenza A virus. As to the kind of experiment: Antiviral activity against Influenza A virus A/California/7/2009(H1N1) strain infected in A549 cells assessed as reduction in viral infection incubated for 48 hrs by qPCR analysis. It is filed as functional, organism-based. The following applies: A549, 48 h.
For another data set, the system named is dengue virus type 2. Kind of data set: Antiviral activity against Dengue virus 2 infected in African green monkey Vero cells assessed as reduction in virus induced cytopathic effect preincubated with cells for 12 hrs followed by viral infection and measured after 48 hrs by qRT-PCR analysis. It is filed as functional, organism-based.
Another data set deals with A549. As to the kind of experiment: Cytotoxicity against human A549 cells by MTT assay. It is filed as functional.
The nature of data set [9]: Selectivity ratio of CC50 for human A549 cells to EC50 for Influenza A virus A/California/7/2009(H1N1) strain infected in A549 cells. The format is toxicity, cell-based. The following applies: read-out: Ratio CC50/EC50.

Take `CC[C@H]1OC(=O)[C@H](C)[C@@H](O[C@H]2C[C@@](C)(OC)[C@@H](O)[C@H](C)O2)[C@H](C)[C@@H](O[C@@H]2O[C@H](C)C[C@H](N(C)C)[C@H]2O)[C@](C)(O)C[C@@H](C)CN(C)[C@H](C)[C@@H](O)[C@]1(C)O` [AZITHROMYCIN]: the EC50 with Zaire ebolavirus was 5.1 µM; with SARS-CoV-2, 2.12 µM; in the data set with Zika virus, 6.59 µM; with Influenza A virus it was 68 µM; in the data set on dengue virus type 2 it was 3.71 µM. Moreover, the selectivity ratio in [1] is more than 25; in data set [4], more than 19; in [5], 218; in [6], 123; in data set [9], more than 8.8. The EC90 in the data set on SARS-CoV-2 (48.25 h, time 2895 min) was 8.65 µM. For the same compound, in [2], it took 810 µM to reach half-maximal cytotoxicity (CC50 at 40 h). The CC50 in data set [3] is more than 130 µM; in data set [7] it was 810 µM; in [8] it was more than 40 µM; in the data set with A549, more than 600 µM.

One may read the EC50 as the midpoint of the concentration-response curve. One may read the EC90 as the concentration needed for an effect of 90%. As usually defined, the CC50 is the concentration at which the toxic effect on the cells reaches its halfway point.
